Measurements from US7040746B2, “Inkjet ink having yellow dye mixture” (Lexmark International, Inc., priority 2003, dated 2006).

How the values were obtained:
Assay type in all cases: physicochemical
[1] = CIELAB color data and optical density of printed ink patches (Gretag-McBeth Spectolino/Spectrascan); settings: dye alone in ink
From the text: CIELAB Color System-Space: The CIELAB color system was established by the Commission Internationale de l'Eclairage (CIE) in 1976. It is color space to be used for the specification of color differences. The L* is a correlate to perceived lightness ranging from 0.0 for black to 100.0 for a diffuse white. The a* and b* dimensions correlate approximately with red-green and yellow-blue chroma perceptions. They take on both negative and positive values. Their maximum values are limited by the physical properties of materials. The color difference (ΔE*ab) between two color points. (L*[…]) and (L*2, a*2, b2), is defined by the distance between the two points and computed by ΔE*ab=[(L*2−L*1)^2+(a*2−a*1)^2+(b*2−b*1)^2]^1/2
The cylindrical coordinate system provides predictors of lightness. L*, chroma, C*, and hue, H*. The chroma correlates the colorfulness of an area and the hue correlates the types of colors such as red, green, blue, yellow, etc. The relationship among a*, b*, C* and H* is given by C*=[a*2+b*2]^1/2 H*=tan^−1(b*/a*) a*=C* cos(H*) b*=C* sin(H*)
(§1) The color data was collected on a Gretag-McBeth Spectolino/Spectrascan with 100% coverage patches printed on Kodak Premium Photo Paper. Permanence was evaluated by measuring the relative fade of 0.6 OD yellow block printed on Ilford Printasia Glossy Photo Paper after 504 hours of exposure to 43-kLux cool white fluorescent illumination.

[2] = Permanence: relative fade of 0.6 OD yellow block under fluorescent illumination; settings: dye alone in ink; for permanence (relative fade): 0.6 OD block on Ilford Printasia Glossy Photo Paper, 504 hours, 43-kLux cool white fluorescent, higher = more fade
Protocol: as §1

[3] = Aqueous solubility of dye
[4] = 3% by weight, Kodak Premium Photo Paper

| Compound | H* (hue) ([1]; 3% by weight) | a* ([1]; 3% by weight) | b* ([1]; 3% by weight) | optical density ([1]; 3% by weight) | C* (chroma) [1, 4] | lightfastness / permanence (in words) ([2]; 3% by weight) | permanence (relative fade) ([2]; 3% by weight) [%] | aqueous solubility [3] [%] | C* (chroma) ([1]; 3.4% by weight) | H* (hue) ([1]; 3.4% by weight) | a* ([1]; 3.4% by weight) | b* ([1]; 3.4% by weight) | optical density ([1]; 3.4% by weight) | permanence (relative fade) ([2]; 3.4% by weight) [%] |
| --- | --- | --- | --- | --- | --- | --- | --- | --- | --- | --- | --- | --- | --- | --- |
| O=C([O-])C1=NN(c2ccc(S(=O)(=O)[O-])cc2)C(=O)C1N=Nc1ccc(S(=O)(=O)[O-])cc1.[Na+].[Na+].[Na+] (centres unmarked) [Acid Yellow 23, reference compound] | 89.5 | 1.0 | 110.3 | 1.5 | 110.3 | extremely poor lightfastness | 86.6 | 40 | – | – | – | – | – | – |
| Acid Yellow 17 | 96.3 | −10.8 | 92.6 | 1.3 | 93.2 | much better permanence | 27.9 | 19 | – | – | – | – | – | – |
| Direct Yellow 132 | – | – | – | – | – | – | – | 13 | 106.7 | 86.9 | 5.9 | 106.3 | 1.7 | 18 |
